From patent US12280072B2, “Oligosaccharide compound for inhibiting intrinsic coagulation factor X-enzyme complex, and preparation method therefor and uses thereof” (Jiuzhitang Co., Ltd., priority 2017, dated 2025) come the findings set out here.

Where only a bound is given, the exact number is not on record here.

One data set concerns the target T1, intrinsic factor Xase (Homo sapiens, UniProt P00740).
T1 construct: 60 nM FIXa; purchased
The experiment in a line: Xase inhibitory activity assay. The format is biochemical. Particulars: read-out: Drug concentration required to inhibit 50% of coagulation factor activity (IC50, ng/mL) Xase (converted). The procedure, abridged: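 Reagents mixed at 37 °C: compound with FVIII (2 IU/ml) and FIXa reagent (60 nM, with FIIa, PC/PS, Ca2+) for 2 min, then FX reagent (50 nM, with thrombin inhibitor) for 1 min, then chromogenic substrate SXa-11. OD405 slope over 7.5 min, relative to buffer control as 100%; IC50 from Hill-equation fit.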

The next data set has as its system mouse tail bleeding. Briefly: Bleeding tendency detection (tail-clipping method). The format is in vivo. Particulars: mice, sc., high dose of equal multiple of the equivalent antithrombotic dose, vs LMWH. On the procedure: Grouping and administration: Mice were randomly divided into 10 groups with 8 animals in each group. The experimental groups and the dose of the animals in each group were (1) natural saline (NS) control group; (2) LMWH 4.0 mg/kg group; (2) LMWH 20 mg/kg group; (3) LMWH 100 mg/Kg group; (4) A2 5 mg/kg group; (5) A2 25 mg/kg group; (6) A2 125 mg/kg group; (7) D1 5 mg/kg group; (8) D1 25 mg/Kg group; (10) D1 125 mg/kg group. The […] in each group were administered subcutaneously (sc.) into the back, and the dose volume was 10 mL/kg.
After 60 min of subcutaneous administration in each experimental group, the mice were placed in a mouse holder, and the tail tip was cut by 5 mm by tail-clipping method, and the mouse tail was immersed in 40 mL of purified water (37° C.) in the beaker. […] At 60 min, the beaker was placed for 60 min and then the absorbance of the solution (OD540) was detected by a UV spectrophotometer.
In addition, whole blood of healthy mice was taken, and the whole blood of different volumes of mice was added to 40 mL of purified water, stirred uniformly and allowed to stand for 60 min. The absorbance (OD540) of the solution was detected by the same method and the volume-absorbance curve was plotted and used as the standard curve for calculating the amount of bleeding. The amount of bleeding in each experimental group was calculated by the standard curve. […]

Data set [1] concerns human-controlled plasma. Briefly: Anticoagulant activity assay: APTT clotting time. The format is biochemical. The procedure, abridged:
(§1)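 Compounds in Tris-HCl buffer were serially diluted, and 10 μL was added to 90 μL human control plasma. PT and APTT clotting times were measured on an MC-4000 coagulometer following kit instructions.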

In data set [2] the test system is human-controlled plasma. Briefly: Anticoagulant activity assay: PT clotting time. The format is biochemical. Put shortly:
as §1

In a further data set the target is T2, FXa (Homo sapiens).
T2 construct: 8 μg/mL FXa solution; purchased
Briefly: AT-dependent Xa inhibitory activity assay. Conditions: in presence of AT; read-out: Drug concentration required to inhibit 50% of coagulation factor activity (IC50, ng/mL) Xa (AT). The format is biochemical. Put shortly:
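Sample preincubated 1 min at 37 °C with antithrombin (1 IU/mL solution), then FXa (8 µg/mL solution) 1 min, then chromogenic substrate SXa-11 (1.25 mM solution). Rate of OD405 change gives residual FXa activity relative to buffer control; duplicates, IC50 fitted with a Hill equation.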

Data set [3] has as its target T3, FIIa (Homo sapiens).
T3 construct: antithrombin (i.e., active coagulation factor IIa); purchased
Briefly: AT-dependent IIa inhibitory activity assay. Particulars: in presence of AT; read-out: Drug concentration required to inhibit 50% of coagulation factor activity (IC50, ng/mL) Ha (AT). It is filed as biochemical. The procedure, abridged: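 Sample preincubated with 1 IU/mL antithrombin 2 min at 37 °C, then 24 IU/mL FIIa 2 min, then 1.25 mM chromogenic substrate CS-01 (stock concentrations). OD405 rate relative to buffer control gave residual activity; IC50 from Hill-equation fit.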
T3 sequence (P01008 33-464): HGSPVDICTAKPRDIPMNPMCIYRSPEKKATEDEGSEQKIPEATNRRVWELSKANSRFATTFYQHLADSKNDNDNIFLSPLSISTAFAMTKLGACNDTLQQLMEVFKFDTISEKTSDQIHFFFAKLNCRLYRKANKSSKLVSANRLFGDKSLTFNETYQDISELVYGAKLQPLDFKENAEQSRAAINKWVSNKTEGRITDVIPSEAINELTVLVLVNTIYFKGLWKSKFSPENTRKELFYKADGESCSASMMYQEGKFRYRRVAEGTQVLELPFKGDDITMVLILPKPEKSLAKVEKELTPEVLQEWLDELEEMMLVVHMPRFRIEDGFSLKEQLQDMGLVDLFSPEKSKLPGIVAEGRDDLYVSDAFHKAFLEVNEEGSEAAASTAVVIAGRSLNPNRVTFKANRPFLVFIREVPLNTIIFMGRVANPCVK

The next data set has as its system plasma. Briefly: TT (thrombin time) clotting time. It is filed as biochemical.
Data set [4] relates to inferior vena cava thrombosis. The experiment in a line: Anti-venous thrombosis experiment (rabbit brain powder infusion plus ligation). The format is in vivo, SD rats. Conditions: rats, sc., experimental dose (2.5, 5.0, 10 mg/kg). As for the experimental part:
Grouping and Administration: Rats were randomly divided into 8 groups with 8 animals in each group. The experimental groups and the dose of the animals in each group were (1) natural saline (NS) control group; (2) LMWH 4.0 mg/kg group; (3) A2 2.5 mg/kg group; (4) A2 group 5.0 mg/kg; (5) A2 10 mg/kg group; (6) D1 2.5 mg/kg group; (7) D1 5.0 mg/kg group; (8) D1 10 mg/kg group. The rats in each group were administered subcutaneously (sc.) into the back, and the administration volume was 1 mL/kg. The modeling experiment was performed 1 hour after administration. A New Zealand rabbit was sacrificed, and the rabbit brain was taken out immediately. Rabbit brain powder infusion was prepared according to the literature method (Thromb Haemost, 2010, 103(5): 994-1004), and stored at −20° C. for use. […] The femoral vein was injected with 2% rabbit brain powder infusion (1 mL/kg). After 20 seconds, the lower margin of the left renal vein was ligated. After the operation, the viscera was placed back into the abdominal cavity and covered with medical gauze (infiltrated with natural saline). […] The length of the thrombus was measured, and the wet weight of the thrombus was weighed and then dry weight was weighed after drying at 50° C. for 24 h. The SPSS software was used to organize and analyze the data, and the measurement data were expressed as mean±standard deviation (x±s). […]

For data set [5], the target named is T4, FIIa (Homo sapiens).
T4 construct: antithrombin (i.e., active coagulation factor IIa)
Briefly: HC-II-dependent IIa inhibitory activity assay. The format is biochemical. Particulars: in presence of HC-II; read-out: Drug concentration required to inhibit 50% of coagulation factor activity (IC50, ng/mL) Ha (HC-II) (converted). On the procedure:
HC-II-dependent IIa inhibitory activity assay: 30 μL of sample, control solution or Tris-HCl buffer (negative control) was added, 30 μL of 1 μM HCII solution was added, and incubated at 37° C. for 2 min; and then 30 μL of 20 NIH/mL FIIa was added, and incubated at 37° C. for 1 min; and finally 30 μL of pre-warmed 4.5 mM FIIa chromogenic substrate CS-01 (38) was added. OD405 was detected by a microplate reader and the IC50 value of FIIa inhibition of each sample was calculated.
Data processing: The average value of OD405 detected by the duplicated well was used as the detection value of the test sample and the reference of each concentration, and the slope of the linear fit between the detected value to the time value (the change rate of the absorbance value OD405/min) indicated enzymatic activity of coagulation factor. Taking the clotting factor activity of the negative control well as 100%, coagulation factor activity (percentage) in the presence of the test sample was calculated. The coagulation factor activity in the presence of the test sample was plotted against the concentration of the test sample, and fitted according to the following formula, to calculate the IC50 value: B=(IC50)^n/{(IC50)^n+[I]^n} […]
T4 sequence (P05546 20-499): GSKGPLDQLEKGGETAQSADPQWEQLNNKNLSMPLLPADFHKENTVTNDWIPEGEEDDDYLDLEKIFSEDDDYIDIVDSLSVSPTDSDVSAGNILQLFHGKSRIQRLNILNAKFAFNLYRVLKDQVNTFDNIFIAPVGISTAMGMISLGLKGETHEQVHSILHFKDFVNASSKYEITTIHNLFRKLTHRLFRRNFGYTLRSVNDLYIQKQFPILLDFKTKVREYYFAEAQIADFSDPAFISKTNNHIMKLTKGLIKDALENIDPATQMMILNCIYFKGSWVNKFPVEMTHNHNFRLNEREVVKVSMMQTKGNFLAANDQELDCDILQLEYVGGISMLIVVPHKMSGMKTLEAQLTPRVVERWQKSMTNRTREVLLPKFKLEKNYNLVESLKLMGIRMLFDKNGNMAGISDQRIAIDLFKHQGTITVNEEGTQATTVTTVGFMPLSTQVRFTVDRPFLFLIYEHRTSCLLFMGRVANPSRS

T1 sequence (P00740 47-191 limits assumed): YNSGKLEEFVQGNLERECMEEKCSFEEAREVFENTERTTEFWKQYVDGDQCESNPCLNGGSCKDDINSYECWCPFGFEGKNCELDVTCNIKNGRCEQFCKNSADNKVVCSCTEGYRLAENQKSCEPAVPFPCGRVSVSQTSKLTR
T1 sequence (P00740 227-461 limits assumed): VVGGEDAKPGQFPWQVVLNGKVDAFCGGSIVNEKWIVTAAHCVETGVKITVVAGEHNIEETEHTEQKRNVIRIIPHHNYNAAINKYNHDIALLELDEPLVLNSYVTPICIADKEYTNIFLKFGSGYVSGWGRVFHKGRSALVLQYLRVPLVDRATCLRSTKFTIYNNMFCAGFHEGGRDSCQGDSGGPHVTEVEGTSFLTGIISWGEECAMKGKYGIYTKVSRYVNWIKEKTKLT
T2 sequence (P01008 33-464): as the sequence (P01008 33-464) above

As for `CC(=O)NC(CO)C(OC1OC(C(=O)O)C(OC2OC(COS(=O)(=O)O)C(OS(=O)(=O)O)C(OC3OC(C(=O)O)C(OC4OC(COS(=O)(=O)O)C(OS(=O)(=O)O)C(OC5OC(C(=O)O)=CC(OC6OC(C)C(OS(=O)(=O)O)C(O)C6OS(=O)(=O)O)C5O)C4NC(C)=O)C(OC4OC(C)C(OS(=O)(=O)O)C(O)C4OS(=O)(=O)O)C3O)C2NC(C)=O)C(OC2OC(C)C(OS(=O)(=O)O)C(O)C2OS(=O)(=O)O)C1O)C(OS(=O)(=O)O)C(O)COS(=O)(=O)O` [Compound A2, L-Fuc2S4S-(α1,3)-ΔUA-(α1,3)-{D-GaNAc4S6S-(β1,4)-[L-Fuc2S4S-(α1,3)]-D-GlcA-(β1,3)}n+1-D-GalNAc4S6S-ol], the results for the IC50 at intrinsic factor Xase, on FXa (Homo sapiens) and on FIIa (Homo sapiens) [3] were 0.0238 µM, above 1.97 µM and above 1.97 µM, respectively. Moreover, the amount of bleeding entry with mouse tail bleeding is reported as “significantly lower than that in LMWH administration group”. In addition, the “Drug concentration required for multiplication of coagulation time (μg/mL) APTT” value (“Drug concentration required … (μg/mL) APTT” below) in the data set with human-controlled plasma [1] was determined as 7.2 µg/mL. The “Drug concentration required for multiplication of coagulation time (μg/mL) PT” value (“Drug concentration required … (μg/mL) PT” below) with human-controlled plasma [2] is given as “# (>128 μg/mL)”. In the data set on plasma, the “Drug concentration required for multiplication of coagulation time (μg/mL) TT” value (from here on “Drug concentration required … (μg/mL) TT”) is given as “# (>128 μg/mL)”. Moreover, the antithrombotic activity entry in data set [4] is on record as “significant antithrombotic activity”.
As to `CC(=O)N[C@H]1[C@H](O[C@H]2[C@H](O[C@@H]3O[C@@H](C)[C@@H](OS(=O)(=O)O)[C@@H](OS(=O)(=O)O)[C@@H]3O)[C@@H](O)C(O)O[C@@H]2C(=O)O)O[C@H](COS(=O)(=O)O)[C@H](OS(=O)(=O)O)[C@@H]1O[C@@H]1OC(C(=O)O)=C[C@H](O[C@@H]2O[C@@H](C)[C@@H](OS(=O)(=O)O)[C@@H](OS(=O)(=O)O)[C@@H]2O)[C@H]1O` (stereo partly drawn) [Compound B6, L-Fuc3S4S-(α1,3)-L-ΔUA-(α1,3)-{D-GaNAc4S6S-(β1,4)-[L-Fuc3S4S-(α1,3)]-D-GlcA-(β1,4)}˜-D-GalNAc4S6S-(β1,4)-[L-Fuc3S4S-(α1,3)]-D-GlcA], the IC50 at intrinsic factor Xase is 1.26 µM; at FXa (Homo sapiens) it was above 3.76 µM; on FIIa (Homo sapiens) [5], 0.615 µM; at FIIa (Homo sapiens) [3], above 3.76 µM. Further, the “Drug concentration required … (μg/mL) APTT” value in the data set with human-controlled plasma [1] is 50.2 µg/mL. Besides, the “Drug concentration required … (μg/mL) PT” value in the data set on human-controlled plasma [2] is recorded as “# (>128 μg/mL)”. In the data set on plasma, the “Drug concentration required … (μg/mL) TT” value is on record as “# (>128 μg/mL)”.
With `CC(=O)N[C@H]1[C@H](O[C@@H]([C@H](O[C@@H]2O[C@@H](C)[C@@H](OS(=O)(=O)O)[C@@H](OS(=O)(=O)O)[C@@H]2O)[C@@H](O)CO)[C@H](O)C(=O)O)O[C@H](COS(=O)(=O)O)[C@H](OS(=O)(=O)O)[C@@H]1O[C@@H]1OC(C(=O)O)=C[C@H](O[C@@H]2O[C@@H](C)[C@@H](OS(=O)(=O)O)[C@@H](OS(=O)(=O)O)[C@@H]2O)[C@H]1O` [Compound B1, L-Fuc3S4S-(α1,3)-L-ΔUA-(α1,3)-{D-GalNAc4S6S-(β1,4)-[L-Fuc3S4S-(α1,3)]-D-GlcA-(β1,3)}˜-D-GalNAc4S6S-(β1,4)-[L-Fuc3S4S-(α1,3)]-D-GlcA-ol], the IC50 was 0.639 µM at intrinsic factor Xase, above 3.76 µM at FXa (Homo sapiens), 0.53 µM at FIIa (Homo sapiens) [5] and above 3.76 µM on FIIa (Homo sapiens) [3]. Besides, the “Drug concentration required … (μg/mL) APTT” value in the data set with human-controlled plasma [1] was 53.9 µg/mL. Moreover, the “Drug concentration required … (μg/mL) PT” value with human-controlled plasma [2] is “# (>128 μg/mL)”. The “Drug concentration required … (μg/mL) TT” value in the data set on plasma is given as “# (>128 μg/mL)”.
